Reference: patent publication US20220348651A1, “ENTPD2 ANTIBODIES, COMBINATION THERAPIES, AND METHODS OF USING THE ANTIBODIES AND COMBINATION THERAPIES” (Novartis AG, priority 2019, published 2022)

Test system: human ENTPD2 engineered B16LM3 clone B5
Test: Human ENTPD2 engineered B16LM3 clone B5 model, combination with A2AR antagonist NIR178
Assay type: in vivo
Details: NIR178 50 or 200 mg/kg p.o. 4 days on, 3 days off, combined with non-specific isotype control
Method: Human ENTPD2-engineered B16LM3 clone B5 was established in female C57BL/6 mice by subcutaneous injection of 0.5×10^6 cells into the right flank of each mouse. Once tumors reached approximately 50 mm^3, mice were randomized according to tumor volume into treatment groups (n=8 per group). Mice received an intravenous (i.v.) treatment of either anti-ENTPD2 mAb1 at a final dose of 10/mg/kg or a non-specific human IgG1 isotype control 10 mg/kg on day 1 of study. NIR178 was administered per os (p.o.) for 4 days on and 3 days off, starting at the beginning of study at either 50 mg/kg or 200 mg/kg. All doses were adjusted to individual mouse body weights. The study was carried out for thirteen days post treatment initiation and tumor volumes were assessed every other day to assess efficacy.

SMILES: Nc1nc(-n2cccn2)nc(-n2cccn2)c1Br [NIR178, 5-bromo-2,6-di-(1H-pyrazol-1-yl)pyrimidine-4-amine, reference compound]
- anti-tumor efficacy: No significant anti-tumor efficacy
